In test [1] the test system is wild type and ORL knockout mice. As to the kind of experiment: Blockade of fasting-induced hyperphagia in mice. Format: in vivo, mouse. As to conditions: wild type mice, oral gavage 30 min. prior to food, food intake 1 hr. The source says:
Blockade of fasting-induced hyperphagia in rats is an accepted model for hyperphagic eating disorders. […] Mice are individually housed a minimum of 3 days prior to the onset of testing to eliminate any effects of stress due to the change from group to individual housing. Three mice/genotype are randomly assigned to each treatment group on the test day. Pre-fast body weight measurements are taken, and food is then removed from cages overnight. Mice are fasted for approximately 15 hr. The next morning, the mice are given one of three doses of drug or vehicle via oral gavage 30 min. prior to gaining access to food. Drugs are dissolved in 20% Captisol dissolved in 25 mM phosphate buffer, pH 2.0. Measurements of body weight are taken immediately prior to drug treatment or 24 hr. after access to food is restored. […] Measurements of food intake are recorded 1 hr following access to food, as indicated, by weight of food remaining at 1 hr. It should be noted that food intake measured is during the light phase, a time during which mice are typically at rest and not normally eating. Following initial testing, mice are rested for 1 week with access to unlimited chow.

In test [2] the test system is NIH-Swiss mice; 129S6 wild type and nociceptin/ORL1 receptor knockout mice. Put plainly: Forced-swim test in mice (mFST). The test is classed as in vivo, mouse. Conditions: mFST. The text has this:
Forced-Swim Test in Mice (mFST) mFST is an established in vivo assay for antidepressant activity (Li et al. J Pharmacol Exp Ther. 319(1):254-9, 2006.). […] The mFST was used to evaluate potential antidepressant-like activity of novel nociceptin/ORL1 antagonists according to previously published methods (Li et al. J Pharmacol Exp Ther. 319(1):254-9, 2006.). Briefly, male NIH-Swiss mice (Harlan Sprague-Dawley, Indianapolis, Ind.) weighing between 25-30 g are used. Group housed animals are removed from the vivarium to the testing area in their own cages and allowed to adapt to the new environment for at least 1 hour before testing. Alternatively, male 129S6 wild type and nociceptin/ORL1 receptor knockout mice were used to confirm dependence of the response to compound was nociceptin/ORL1 receptor dependent. All compounds are prepared in 20% Captisol, 25 mM phosphate buffer, pH 2.0 on the day of use. Mice are placed in a cylinder (diameter: 10 cm; height: 25 cm) filled with 6 cm of water (22-25° C.) for 6 min. The duration of immobility during the last 4 min. of the 6 min. period of the test was scored. A mouse is recorded as immobile when floating motionless or making only those movements necessary to keep its head above water.

A further test has as its target Delta Opioid (Homo sapiens, UniProt P41143). Put plainly: Radioligand binding selectivity. As to conditions: Delta Opioid; read-out: Ki. The procedure:
(§1) Radioligand binding assays are commonly used to determine the affinity (Ki) or potency of a compound to bind to a particular receptor or target protein. A filtration-based [3H]-OFQ/nociceptin receptor binding assay is developed based on previous assay formats (Ardati A, Henningsen R A, Higelin J, Reinscheid R K, Civelli O, Monsma F J Jr. Mol. Pharmacol. 1997 May; 51(5):816-24.) with minor modifications. [3H]-OFQ/nociceptin binding assays are carried out in deep-well 96-well plates. [^3H]OFQ (final assay concentration 0.2 nM) competition studies are carried out with 5-10 μg of membrane protein (isolated from Chinese hamster ovary cells (CHO cells) expressing cloned human ORL1 receptors) in a final assay volume of 0.5 mL of buffer containing 20 mM HEPES, pH 7.4, 5 mM MgCl2, 1 mM EGTA, 100 mM NaCl, 0.1% bovine serum albumin. Samples are incubated for 60 min. at room temperature, which is found to be optimal for competition assays. The assays are terminated by filtration through glass fiber filters (Wallac filtermat A) [pretreated with 0.3% polyethylenimine (Sigma) for 1 hr] on a Tometc cell harvester, and the filters are washed three times with 5 mL of ice-cold 50 mM Tris.HCl, pH 7.4. Filtermats are then dried and imbedded with Meltilex scintillant A and the radioactivity counted in a Wallac Microbeta scintillation counter. Specific binding is determined by displacement with 100 nM unlabeled nociceptin. Curves are plotted as the percent of specific binding and IC50 values are determined using a sigmoidal dose response curve with variable slope. K, values are calculated from the IC50 by the equation of Cheng and Prusoff (Cheng, Y. C., and Prusoff, W. H., Biochem. Pharmacol. 22, 3099-3108 (1973)) where Ki=IC50×(1+D×Kd^−1)^−1. Similarly, Ki for the mu, kappa and delta opioids, serotonin, adrenergic, and muscarinic receptors may be determined using membranes expressing the desired receptor and appropriate corresponding radioligand competitor molecules.

A further test concerns the target Mu Opioid (Homo sapiens, UniProt P35372). Put plainly: Radioligand binding selectivity. As to conditions: Mu Opioid; read-out: Ki. Here is the method:
as §1

In a further test the target is Kappa Opioid (Homo sapiens, UniProt P41145). As to the kind of experiment: Radioligand binding selectivity. Conditions: Kappa Opioid; read-out: Ki. The procedure: as §1
The target in test [3] is human ERG (hERG) K+ channel (Homo sapiens, UniProt Q12809). Put plainly: hERG channel [3H]astemizole binding assay. Here is the method: Blockade of K^+-channel conductance in the heart is associated with cardiotoxicity in the form of QT-wave prolongation. The affinity (Ki) of the exemplified nociceptin receptor antagonists for the human ERG (hERG) K^+ channel is determined in HEK293 cells expressing cloned hERG using the hERG channel antagonist radioligand [3H]astemizole (2 nM final assay concentration) according to well known procedures (see for example Finlayson K, et al. (Eur J Pharmacol. 412(3):203-12, 2001) [3H]Astemizole binding assays are performed at the contract research company Cerep (Paris France) according to standard procedures.
(hERG is a cardiac potassium channel; its block is linked to QT prolongation.)

The target of test [4] is T1, cloned human ORL1/nociceptin receptors (Homo sapiens, UniProt P41146).
T1 construct: expressed in transfected cells
Put plainly: Functional blockade of agonist-mediated G-protein activation, GTP-γ-[35S] binding. The test is classed as biochemical. The text has this: Agonist-mediated stimulation of G-protein coupled receptors results in the activation of membrane associated Gαβγ-protein heterotrimer complexes, and represents the first step in the transduction of extracellular signals to modification of intracellular pathways. The first step in activation of receptor-mediated activation of Gαβγ-proteins heterotrimer is the exchange of Gα subunit bound guanosine diphoshpate (GDP) for guanosine triphosphate (GTP). The binding of GTP to the Gα subunit causes dissociation of the heterotrimer subunits, Gβ and Gγ, resulting in the modulation of several intracellular signaling cascades. Measurement of receptor-mediated G-protein activation can be measured using the non-hydrolyzable radiolabeled analog of GTP, GTP-γ-[35S]. Utilizing this methodology, antagonist affinity (Kb) is measured in membranes expressing cloned human ORL1/nociceptin receptors using a GTP-γ-[35S] binding assay according to previously described protocols with minor modifications (DeLapp et al., J Pharmacol Exp Ther. 1999 May; 289(2):946-55; Ozaki et al., Eur J Pharmacol. 2000 Aug. 18; 402(1-2):45-53). Assays are conducted in a 200-μl volume with the following buffer composition: 100 mM NaCl, 20 mM HEPES, 5 mM MgCl2, 1 mM EDTA, 0.1% BSA, 3 μM GDP, 0.5 nM [^35S]GTPγS. ORL1 receptor membrane suspension is added at a concentration of 20 μg protein per well and receptor stimulation is achieved using 300 nM nociceptin/OFQ. Wheat germ agglutinin coated SPA beads (Amersham, Arlington Hts., Ill.) are added at 1 mg per well to detect membrane-bound [^35S]GTPγS. Plates are sealed and incubated for 2 hr. at room temperature. Plates are then placed at 4° C. overnight to allow the SPA beads to settle and then counted in a Wallac Microbeta. Specific [^35S]GTPγS binding is determined as the difference in CPM observed in the absence and presence of 10 μM unlabeled GTPγS. Data are plotted as the percent of specific [^35S]GTPγS bound. Curves are plotted as the percent of specific binding and IC50 values are determined using a sigmoidal dose response curve with variable slope. Antagonist affinity (Kb) is estimated according to DeLapp et al., 1999 using a modification of the equation of Cheng and Prusoff (1973) where Kb=IC50×(1+D×EC50^−1)^−1.
For orientation: GTPγS is a poorly hydrolysed GTP analogue; its binding reports G protein activation.

Test [5] deals with T2, cloned human ORL1 receptors (Homo sapiens, UniProt P41146).
T2 construct: expressed in transfected cells; host or cells: CHO cells (membranes)
As to the kind of experiment: [3H]-OFQ/nociceptin receptor binding assay. The procedure:
as §1

In test [6] the target is T3, nociceptin/ORL1 receptors (Rattus norvegicus, UniProt P35370).
T3 construct: rats are sacrificed by cervical dislocation and the hypothalamus is removed; from tissue; host or cells: rat hypothalamus (in vivo occupancy)
As to the kind of experiment: In vivo receptor occupancy (LC/MS/MS, RO Tracer) in hypothalamus. Conditions: oral 3 mg/kg dose after 6 hr.

The target in another test is 5-HT2B (Homo sapiens, UniProt P41595). Put plainly: Radioligand binding selectivity. The procedure:
as §1

The target in a further test is 5-HT6 (Homo sapiens, UniProt P50406). Put plainly: Radioligand binding selectivity. Conditions: 5-HT6; read-out: Ki. Here is the method: as §1
The target of a further test is 5-HT4 (Homo sapiens, UniProt Q13639). As to the kind of experiment: Radioligand binding selectivity. As to conditions: 5-HT4; read-out: Ki. Here is the method: as §1
The target in a further test is 5-HT1E (Homo sapiens, UniProt P28566). Put plainly: Radioligand binding selectivity. As to conditions: 5-HT1E; read-out: Ki. The procedure:
as §1

The target in another test is 5-HT1B (Homo sapiens, UniProt P28222). As to the kind of experiment: Radioligand binding selectivity. Conditions: 5-HT1B; read-out: Ki. The procedure: as §1
In another test the target is 5-HT2A (Homo sapiens, UniProt P28223). As to the kind of experiment: Radioligand binding selectivity. Conditions: 5-HT2A; read-out: Ki. Here is the method:
as §1

For the next test, the target named is 5-HT1F (Homo sapiens, UniProt P30939). As to the kind of experiment: Radioligand binding selectivity. The procedure:
as §1

Another test concerns the target 5-HT1D (Homo sapiens, UniProt P28221). As to the kind of experiment: Radioligand binding selectivity. Conditions: 5-HT1D; read-out: Ki. Here is the method: as §1
A further test addresses 5-HT7 (Homo sapiens, UniProt P34969). As to the kind of experiment: Radioligand binding selectivity. Conditions: 5-HT7; read-out: Ki. Here is the method: as §1
In a further test the target is 5-HT2C (Homo sapiens, UniProt P28335). Put plainly: Radioligand binding selectivity. Conditions: 5-HT2C; read-out: Ki. Here is the method:
as §1

For another test, the target named is 5-HT5 (Homo sapiens, UniProt P47898). As to the kind of experiment: Radioligand binding selectivity. As to conditions: 5-HT5; read-out: Ki. Here is the method:
as §1

Structures are written as SMILES.

T3 sequence (P35370 whole entry): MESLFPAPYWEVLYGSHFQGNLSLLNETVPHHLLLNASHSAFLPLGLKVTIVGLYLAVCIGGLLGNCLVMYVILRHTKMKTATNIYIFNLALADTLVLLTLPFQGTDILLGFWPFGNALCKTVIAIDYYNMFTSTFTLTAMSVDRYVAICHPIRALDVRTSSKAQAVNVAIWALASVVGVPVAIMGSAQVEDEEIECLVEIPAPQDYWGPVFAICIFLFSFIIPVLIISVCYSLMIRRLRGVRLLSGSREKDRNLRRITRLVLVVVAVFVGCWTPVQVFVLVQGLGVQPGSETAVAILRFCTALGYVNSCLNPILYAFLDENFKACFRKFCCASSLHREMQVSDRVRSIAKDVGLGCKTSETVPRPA
T2 sequence (P41146 whole entry): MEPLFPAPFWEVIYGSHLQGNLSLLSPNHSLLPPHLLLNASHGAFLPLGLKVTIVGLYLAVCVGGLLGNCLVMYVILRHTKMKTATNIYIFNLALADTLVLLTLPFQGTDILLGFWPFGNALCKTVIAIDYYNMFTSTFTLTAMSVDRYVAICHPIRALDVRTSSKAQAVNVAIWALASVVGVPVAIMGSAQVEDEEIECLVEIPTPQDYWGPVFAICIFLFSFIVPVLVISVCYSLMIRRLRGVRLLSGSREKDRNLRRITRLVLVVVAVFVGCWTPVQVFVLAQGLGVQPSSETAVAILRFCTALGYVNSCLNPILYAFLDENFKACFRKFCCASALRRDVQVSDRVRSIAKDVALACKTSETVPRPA
T1 sequence (P41146 whole entry): as above
human ERG (hERG) K+ channel, sequence (Q12809 whole entry): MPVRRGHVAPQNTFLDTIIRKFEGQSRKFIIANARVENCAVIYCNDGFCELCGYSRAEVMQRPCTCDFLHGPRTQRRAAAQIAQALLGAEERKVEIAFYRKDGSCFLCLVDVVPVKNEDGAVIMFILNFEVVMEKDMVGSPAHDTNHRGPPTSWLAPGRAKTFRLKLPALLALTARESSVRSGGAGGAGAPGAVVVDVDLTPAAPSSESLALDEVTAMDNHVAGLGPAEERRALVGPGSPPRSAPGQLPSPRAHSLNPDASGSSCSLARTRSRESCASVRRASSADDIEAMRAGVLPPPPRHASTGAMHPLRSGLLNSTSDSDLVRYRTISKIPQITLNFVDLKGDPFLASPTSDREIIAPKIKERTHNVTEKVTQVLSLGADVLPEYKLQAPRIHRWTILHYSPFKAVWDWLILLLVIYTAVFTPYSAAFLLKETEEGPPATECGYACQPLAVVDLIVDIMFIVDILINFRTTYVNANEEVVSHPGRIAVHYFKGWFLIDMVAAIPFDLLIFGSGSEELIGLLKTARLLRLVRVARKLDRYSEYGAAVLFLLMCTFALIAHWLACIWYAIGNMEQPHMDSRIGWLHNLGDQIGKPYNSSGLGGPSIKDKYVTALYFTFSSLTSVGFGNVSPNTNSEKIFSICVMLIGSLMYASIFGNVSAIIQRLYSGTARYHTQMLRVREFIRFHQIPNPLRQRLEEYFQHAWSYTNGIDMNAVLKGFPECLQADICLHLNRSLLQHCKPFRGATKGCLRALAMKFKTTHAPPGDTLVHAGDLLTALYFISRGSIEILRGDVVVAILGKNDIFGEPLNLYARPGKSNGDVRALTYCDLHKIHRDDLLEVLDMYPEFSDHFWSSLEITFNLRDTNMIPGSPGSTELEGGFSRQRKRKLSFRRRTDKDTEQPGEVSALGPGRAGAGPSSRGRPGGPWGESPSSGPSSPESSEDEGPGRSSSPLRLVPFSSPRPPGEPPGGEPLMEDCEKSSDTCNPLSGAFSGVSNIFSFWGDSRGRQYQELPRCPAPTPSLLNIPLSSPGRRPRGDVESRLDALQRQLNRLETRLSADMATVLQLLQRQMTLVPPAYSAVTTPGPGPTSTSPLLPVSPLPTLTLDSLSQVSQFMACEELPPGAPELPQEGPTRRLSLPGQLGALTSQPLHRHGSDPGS
5-HT4, sequence (Q13639 whole entry, species assumed): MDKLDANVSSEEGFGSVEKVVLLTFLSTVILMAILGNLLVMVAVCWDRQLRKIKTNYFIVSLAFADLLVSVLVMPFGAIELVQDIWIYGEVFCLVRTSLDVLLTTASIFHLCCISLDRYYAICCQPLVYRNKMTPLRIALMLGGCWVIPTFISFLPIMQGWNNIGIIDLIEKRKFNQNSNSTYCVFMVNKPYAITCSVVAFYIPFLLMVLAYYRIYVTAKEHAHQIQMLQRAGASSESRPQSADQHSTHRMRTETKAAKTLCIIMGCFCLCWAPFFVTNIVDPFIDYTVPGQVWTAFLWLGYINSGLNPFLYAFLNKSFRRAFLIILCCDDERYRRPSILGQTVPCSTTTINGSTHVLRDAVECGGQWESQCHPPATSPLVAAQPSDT
5-HT7, sequence (P34969 whole entry, species assumed): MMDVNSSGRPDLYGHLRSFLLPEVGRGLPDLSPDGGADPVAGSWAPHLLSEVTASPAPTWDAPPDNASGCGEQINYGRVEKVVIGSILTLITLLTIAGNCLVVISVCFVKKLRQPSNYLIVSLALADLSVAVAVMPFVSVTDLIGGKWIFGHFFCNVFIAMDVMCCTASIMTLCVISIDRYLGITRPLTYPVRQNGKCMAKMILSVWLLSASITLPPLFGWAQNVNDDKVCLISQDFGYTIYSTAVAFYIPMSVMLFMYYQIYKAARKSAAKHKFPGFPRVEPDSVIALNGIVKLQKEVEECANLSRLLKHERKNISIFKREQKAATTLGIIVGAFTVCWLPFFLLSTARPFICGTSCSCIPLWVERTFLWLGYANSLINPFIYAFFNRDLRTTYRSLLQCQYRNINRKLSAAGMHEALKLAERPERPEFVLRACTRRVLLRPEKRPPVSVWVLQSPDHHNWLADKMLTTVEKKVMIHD
5-HT2C, sequence (P28335 33-458, species assumed): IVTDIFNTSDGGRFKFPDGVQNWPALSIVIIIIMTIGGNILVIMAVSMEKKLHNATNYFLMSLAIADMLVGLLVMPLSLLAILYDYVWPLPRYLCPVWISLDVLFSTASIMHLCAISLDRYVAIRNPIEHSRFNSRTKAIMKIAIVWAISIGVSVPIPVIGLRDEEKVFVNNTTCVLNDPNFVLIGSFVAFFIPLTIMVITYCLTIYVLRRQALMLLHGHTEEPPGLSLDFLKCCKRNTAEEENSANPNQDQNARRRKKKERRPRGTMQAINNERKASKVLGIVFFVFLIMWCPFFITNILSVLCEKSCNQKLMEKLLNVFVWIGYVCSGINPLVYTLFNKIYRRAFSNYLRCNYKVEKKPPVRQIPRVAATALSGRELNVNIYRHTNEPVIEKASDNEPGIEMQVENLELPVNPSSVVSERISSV
5-HT1D, sequence (P28221 whole entry, species assumed): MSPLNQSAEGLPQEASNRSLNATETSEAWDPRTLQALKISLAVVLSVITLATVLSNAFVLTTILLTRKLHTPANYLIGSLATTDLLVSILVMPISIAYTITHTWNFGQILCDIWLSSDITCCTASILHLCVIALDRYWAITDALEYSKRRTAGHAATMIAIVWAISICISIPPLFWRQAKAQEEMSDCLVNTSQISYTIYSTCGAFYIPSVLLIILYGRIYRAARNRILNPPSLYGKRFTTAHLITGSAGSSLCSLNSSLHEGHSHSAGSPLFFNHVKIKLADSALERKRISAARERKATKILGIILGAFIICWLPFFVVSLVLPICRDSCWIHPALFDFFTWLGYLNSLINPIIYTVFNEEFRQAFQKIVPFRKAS
5-HT2B, sequence (P41595 whole entry, species assumed): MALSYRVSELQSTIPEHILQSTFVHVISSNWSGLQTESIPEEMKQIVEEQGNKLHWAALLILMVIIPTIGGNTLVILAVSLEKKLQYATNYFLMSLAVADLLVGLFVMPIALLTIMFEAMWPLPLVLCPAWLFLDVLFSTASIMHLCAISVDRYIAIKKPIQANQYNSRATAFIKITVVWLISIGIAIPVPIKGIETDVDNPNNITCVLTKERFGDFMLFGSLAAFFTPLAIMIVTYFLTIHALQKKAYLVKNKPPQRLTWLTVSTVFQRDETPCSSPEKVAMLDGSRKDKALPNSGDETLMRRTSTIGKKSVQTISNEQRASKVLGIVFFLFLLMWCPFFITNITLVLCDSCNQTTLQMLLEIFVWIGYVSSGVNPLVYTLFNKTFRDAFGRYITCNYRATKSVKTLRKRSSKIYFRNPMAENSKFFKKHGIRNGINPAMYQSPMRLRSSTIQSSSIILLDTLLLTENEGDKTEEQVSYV
5-HT1E, sequence (P28566 whole entry, species assumed): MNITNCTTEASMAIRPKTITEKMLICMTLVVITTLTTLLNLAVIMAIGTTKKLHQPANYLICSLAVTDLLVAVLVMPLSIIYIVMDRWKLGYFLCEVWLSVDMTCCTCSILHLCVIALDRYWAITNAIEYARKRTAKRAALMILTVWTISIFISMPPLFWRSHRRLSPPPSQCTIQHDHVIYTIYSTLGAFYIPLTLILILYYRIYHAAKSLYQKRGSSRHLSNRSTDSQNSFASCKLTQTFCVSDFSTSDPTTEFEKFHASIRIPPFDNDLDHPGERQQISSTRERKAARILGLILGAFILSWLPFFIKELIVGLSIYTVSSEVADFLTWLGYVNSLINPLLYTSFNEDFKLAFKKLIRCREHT
Kappa Opioid, sequence (P41145 whole entry): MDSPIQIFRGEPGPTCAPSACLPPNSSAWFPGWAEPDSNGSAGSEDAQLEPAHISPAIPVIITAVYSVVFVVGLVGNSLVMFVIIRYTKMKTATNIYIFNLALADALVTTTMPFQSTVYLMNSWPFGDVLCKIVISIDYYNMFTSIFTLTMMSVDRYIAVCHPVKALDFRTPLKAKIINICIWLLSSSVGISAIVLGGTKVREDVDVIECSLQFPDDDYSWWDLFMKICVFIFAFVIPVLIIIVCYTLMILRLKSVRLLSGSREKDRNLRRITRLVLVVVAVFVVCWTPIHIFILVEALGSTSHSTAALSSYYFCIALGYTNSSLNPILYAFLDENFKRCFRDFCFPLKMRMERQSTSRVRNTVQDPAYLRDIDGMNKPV

Regarding `CC(=O)c1cccc(F)c1-n1cc(CN2CCC3(CC2)OCC(F)(F)c2cc(Cl)sc23)c(C)n1` [Example 40, 1-(2-(4-((2′-Chloro-4′,4′-difluoro-4′,5′-dihydrospiro[piperidine-4,7′-thieno[2,3-c]pyran]-1-yl)methyl)-3-methyl-1H-pyrazol-1-yl)-3-fluorophenyl)ethanone], the fasting-induced hyperphagia result in test [1] is reported as “substantially block fasting-induced hyperphagia”. The “maximum effect, reduction in immobilization time” value in test [2] stood at 50%. This molecule also showed an ED60 in [2] (immobility time) of 23 nM. For the same molecule, the Ki on Delta Opioid is above 479 nM; on Mu Opioid, above 451 nM; on Kappa Opioid, above 430 nM; in test [3] it was 1080 nM; in [5] it was 0.25 nM. In test [4], this molecule came in with a Kb of 0.3 nM. In addition, the receptor occupancy at 3 mg/kg in test [6] was found to be 70%.
`OCc1nn(-c2c(F)cccc2F)cc1CN1CCC2(CC1)OCC(F)(F)c1cc(Cl)sc12` [Example 50, [4-[(2-Chloro-4,4-difluoro-spiro[5H-thieno[2,3-c]pyran-7,4′-piperidine]-1′-yl)methyl]-1-(2,6-difluorophenyl)pyrazol-3-yl]methanol]: in [1], the fasting-induced hyperphagia entry was “substantially block fasting-induced hyperphagia”. Besides, the Ki at 5-HT2B is 42.9 nM; at 5-HT6, above 5830 nM; at 5-HT4, above 4120 nM; on 5-HT1E it was above 5370 nM; on 5-HT1B it was above 3580 nM; at 5-HT2A, above 5000 nM. Further, the Ki on 5-HT1F was above 8520 nM; on 5-HT1D it was above 8550 nM; at 5-HT7, above 3980 nM; on 5-HT2C, 4750 nM; at 5-HT5, above 9090 nM; in test [3] it was 7000 nM. Further, in test [5], the Ki amounted to 0.89 nM. The Kb in test [4] worked out at 0.54 nM. The molecule also came in with a receptor occupancy at 3 mg/kg in test [6] of 81%.

As usually defined, the Ki is the dissociation constant of the complex between target and ligand, obtained from inhibition or displacement.

The values above are taken from patent US20120214784A1, “SPIROPIPERIDINE COMPOUNDS AS ORL-1 RECEPTOR ANTAGONISTS” (ELI LILLY AND COMPANY, priority 2009, published 2012).
